Reference: ChEMBL document CHEMBL1148593, “Matrix metalloproteinase target family landscape: a chemometrical approach to ligand selectivity based on protein binding site analysis” (J Med Chem, 2006)

How the values were obtained:
[1] = target: T1, Interstitial collagenase (Homo sapiens, UniProt P03956); assay: Binding affinity to MMP1
T1 sequence (P03956 whole entry): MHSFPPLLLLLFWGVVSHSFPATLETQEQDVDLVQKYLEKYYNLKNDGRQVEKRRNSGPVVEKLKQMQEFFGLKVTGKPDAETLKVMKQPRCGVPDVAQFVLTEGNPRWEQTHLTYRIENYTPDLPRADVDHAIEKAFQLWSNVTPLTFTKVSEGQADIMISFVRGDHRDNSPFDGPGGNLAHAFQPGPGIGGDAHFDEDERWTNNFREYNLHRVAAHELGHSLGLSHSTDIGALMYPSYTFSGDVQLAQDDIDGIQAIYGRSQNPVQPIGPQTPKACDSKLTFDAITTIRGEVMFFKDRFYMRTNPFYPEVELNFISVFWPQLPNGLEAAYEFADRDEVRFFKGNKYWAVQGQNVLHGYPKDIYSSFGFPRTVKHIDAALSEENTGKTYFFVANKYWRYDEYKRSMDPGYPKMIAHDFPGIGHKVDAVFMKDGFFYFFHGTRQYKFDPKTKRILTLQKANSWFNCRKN

[2] = target: Neutrophil collagenase (Homo sapiens, UniProt P22894); assay: Binding affinity to MMP8
Chain of Neutrophil collagenase (P22894 whole entry): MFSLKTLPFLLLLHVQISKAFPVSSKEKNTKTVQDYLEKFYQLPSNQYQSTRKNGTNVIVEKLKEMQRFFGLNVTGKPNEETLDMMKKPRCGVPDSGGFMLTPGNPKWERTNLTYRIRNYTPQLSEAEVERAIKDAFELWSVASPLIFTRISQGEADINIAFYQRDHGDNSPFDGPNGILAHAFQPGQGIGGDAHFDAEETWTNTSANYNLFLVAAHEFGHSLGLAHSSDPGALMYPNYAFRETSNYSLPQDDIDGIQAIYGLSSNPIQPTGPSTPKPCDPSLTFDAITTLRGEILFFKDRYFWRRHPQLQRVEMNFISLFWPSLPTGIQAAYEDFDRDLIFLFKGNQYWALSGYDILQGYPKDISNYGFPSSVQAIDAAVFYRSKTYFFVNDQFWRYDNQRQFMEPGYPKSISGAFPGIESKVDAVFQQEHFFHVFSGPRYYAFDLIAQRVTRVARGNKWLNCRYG

[3] = target: 72 kDa type IV collagenase (Homo sapiens, UniProt P08253); assay: Binding affinity to MMP2
Chain of 72 kDa type IV collagenase (P08253 whole entry): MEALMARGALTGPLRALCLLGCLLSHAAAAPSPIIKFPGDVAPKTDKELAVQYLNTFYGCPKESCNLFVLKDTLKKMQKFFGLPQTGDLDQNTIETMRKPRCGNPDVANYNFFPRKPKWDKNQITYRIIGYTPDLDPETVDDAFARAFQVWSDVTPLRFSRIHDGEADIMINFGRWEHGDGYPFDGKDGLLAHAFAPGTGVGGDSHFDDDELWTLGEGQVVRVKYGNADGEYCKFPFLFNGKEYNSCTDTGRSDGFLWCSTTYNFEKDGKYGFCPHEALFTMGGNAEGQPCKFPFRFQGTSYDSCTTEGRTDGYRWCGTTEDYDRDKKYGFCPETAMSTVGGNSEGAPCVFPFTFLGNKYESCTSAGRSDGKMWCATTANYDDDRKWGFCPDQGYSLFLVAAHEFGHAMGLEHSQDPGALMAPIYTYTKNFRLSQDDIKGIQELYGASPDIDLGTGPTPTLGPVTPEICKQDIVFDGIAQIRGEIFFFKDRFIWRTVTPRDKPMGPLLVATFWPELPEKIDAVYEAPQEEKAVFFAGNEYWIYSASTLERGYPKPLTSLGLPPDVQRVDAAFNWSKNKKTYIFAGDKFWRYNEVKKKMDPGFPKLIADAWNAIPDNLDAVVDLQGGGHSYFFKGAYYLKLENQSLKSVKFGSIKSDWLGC

[4] = target: Stromelysin-1 (Homo sapiens, UniProt P08254); assay: Binding affinity to MMP3
Chain of Stromelysin-1 (P08254 whole entry): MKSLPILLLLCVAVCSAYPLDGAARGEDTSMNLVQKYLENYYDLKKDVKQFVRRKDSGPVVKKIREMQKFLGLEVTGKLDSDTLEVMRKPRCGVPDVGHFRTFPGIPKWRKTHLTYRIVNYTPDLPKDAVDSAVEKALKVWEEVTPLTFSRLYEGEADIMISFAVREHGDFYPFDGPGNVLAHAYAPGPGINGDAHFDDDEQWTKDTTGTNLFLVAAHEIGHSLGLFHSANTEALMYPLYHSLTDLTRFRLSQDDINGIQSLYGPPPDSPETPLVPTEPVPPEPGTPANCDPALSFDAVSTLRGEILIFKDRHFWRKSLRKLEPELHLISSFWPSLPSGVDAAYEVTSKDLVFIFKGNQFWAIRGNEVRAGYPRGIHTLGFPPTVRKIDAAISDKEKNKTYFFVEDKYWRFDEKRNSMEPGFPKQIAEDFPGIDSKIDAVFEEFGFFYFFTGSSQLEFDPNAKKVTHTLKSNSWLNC

[5] = target: T2, Matrilysin (Homo sapiens, UniProt P09237); assay: Binding affinity to MMP7
T2 sequence (P09237 whole entry): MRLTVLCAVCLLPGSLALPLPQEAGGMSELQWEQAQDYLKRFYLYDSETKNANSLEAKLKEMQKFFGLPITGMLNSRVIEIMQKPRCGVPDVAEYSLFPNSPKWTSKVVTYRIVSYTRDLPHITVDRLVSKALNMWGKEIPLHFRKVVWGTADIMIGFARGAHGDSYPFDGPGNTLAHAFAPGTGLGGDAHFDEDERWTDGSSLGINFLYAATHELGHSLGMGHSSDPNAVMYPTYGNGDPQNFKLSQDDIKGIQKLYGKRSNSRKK

[6] = target: Matrix metalloproteinase-9 (Homo sapiens, UniProt P14780); assay: Binding affinity to MMP9
Chain of Matrix metalloproteinase-9 (P14780 whole entry): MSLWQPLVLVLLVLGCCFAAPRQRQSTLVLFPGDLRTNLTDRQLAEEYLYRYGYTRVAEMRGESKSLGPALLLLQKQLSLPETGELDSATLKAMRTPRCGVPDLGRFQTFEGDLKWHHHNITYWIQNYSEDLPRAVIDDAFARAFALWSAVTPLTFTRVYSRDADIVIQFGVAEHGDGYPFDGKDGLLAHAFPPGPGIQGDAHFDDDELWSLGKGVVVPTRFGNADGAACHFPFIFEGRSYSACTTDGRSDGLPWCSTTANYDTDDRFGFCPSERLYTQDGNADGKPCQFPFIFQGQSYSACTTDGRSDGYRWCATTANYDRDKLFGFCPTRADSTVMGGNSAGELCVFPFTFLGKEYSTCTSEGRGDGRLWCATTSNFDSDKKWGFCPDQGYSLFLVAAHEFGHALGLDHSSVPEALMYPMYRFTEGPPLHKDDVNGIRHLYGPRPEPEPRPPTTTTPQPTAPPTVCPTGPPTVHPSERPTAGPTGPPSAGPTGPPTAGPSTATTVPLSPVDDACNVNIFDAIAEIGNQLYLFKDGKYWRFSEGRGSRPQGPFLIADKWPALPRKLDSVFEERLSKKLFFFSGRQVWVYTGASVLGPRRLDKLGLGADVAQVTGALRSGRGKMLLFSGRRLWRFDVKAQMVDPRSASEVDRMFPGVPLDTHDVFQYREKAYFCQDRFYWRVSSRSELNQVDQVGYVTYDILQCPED

[7] = target: T3, Interstitial collagenase (Homo sapiens) (UniProt P03956); assay: Inhibition of MMP1 at 2 uM
T3 sequence (whole entry): T1 sequence (P03956 whole entry)

[8] = target: T4, Matrilysin (Homo sapiens) (UniProt P09237); assay: Inhibition of MMP7 at 2 uM
T4 sequence (whole entry): T2 sequence (P09237 whole entry)

[9] = target: T5, Stromelysin-3 (Homo sapiens, UniProt P24347); assay: Binding affinity to MMP11
T5 sequence (P24347 whole entry): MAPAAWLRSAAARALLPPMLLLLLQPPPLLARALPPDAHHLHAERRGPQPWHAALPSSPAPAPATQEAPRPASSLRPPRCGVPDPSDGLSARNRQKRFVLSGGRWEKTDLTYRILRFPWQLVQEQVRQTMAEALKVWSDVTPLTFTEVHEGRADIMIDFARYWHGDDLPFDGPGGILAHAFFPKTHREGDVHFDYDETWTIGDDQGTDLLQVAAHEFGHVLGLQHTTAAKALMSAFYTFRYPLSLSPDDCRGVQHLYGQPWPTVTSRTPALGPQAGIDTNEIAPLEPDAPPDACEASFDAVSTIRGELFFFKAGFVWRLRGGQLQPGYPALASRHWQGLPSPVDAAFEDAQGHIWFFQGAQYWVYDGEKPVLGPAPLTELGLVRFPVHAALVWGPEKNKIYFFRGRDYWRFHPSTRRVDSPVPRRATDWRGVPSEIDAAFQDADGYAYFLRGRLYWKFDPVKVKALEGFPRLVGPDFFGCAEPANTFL

With O=C(O)C1Cc2ccccc2CN1S(=O)(=O)CCc1ccc(-c2ccc(Cl)cc2)cc1 (stereo not given) as the compound, how does the IC50 [1] read?
Its IC50 is over 10000 nM.

What about the IC50 [2] of the same compound?
Its IC50 is 10 nM.

With CC(C)CC(C(=O)N[C@H]1CCCCCCCCCCNC1=O)[C@H](O)C(=O)NO (stereo not given in full) as the compound, how does the IC50 [1] read?
Its IC50 is 30 nM.

What about the IC50 [3] of the same compound?
Its IC50 is 20 nM.

And the IC50 [4]?
Its IC50 is 500 nM.

And the IC50 [2]?
Its IC50 is 20 nM.

What about the IC50 [5] of the same compound?
The IC50 was 200 nM.

Which Ki [3] does the source give for CNC(=O)C1CCCCNC(=O)CCC(C(=O)O)NC(CCc2ccccc2)C(=O)N1 (stereo not given) here?
The Ki was 8100 nM.

And the Ki [4]?
The Ki was 2900 nM.

And the Ki [6]?
Its Ki is 6600 nM.

What about the Ki [2] of the same compound?
Its Ki is 17 nM.

With O=C(Nc1ccc(S(=O)(=O)C[C@@H](Cc2c[nH]c3ccccc23)C(=O)O)cc1)c1ccc(Br)cc1 as the compound, how does the IC50 [1] read?
The IC50 was over 1000 nM.

And the IC50 [3]?
The IC50 was 2.6 nM.

And the IC50 [4]?
Its IC50 is over 1000 nM.

What about the IC50 [6] of the same compound?
The IC50 was 2.7 nM.

And the IC50 [5]?
Its IC50 is over 1000 nM.

Which inhibition [7] does the source give for NC(=O)C(Cc1c[nH]c2ccccc12)NC(=O)C(CCCc1ccccc1)CP(=O)(O)C(Cc1ccccc1)NC(=O)OCc1ccccc1 (stereo not given) here?
Its inhibition is 23%.

What about the inhibition [8] of the same compound?
Its inhibition is 8%.

And the IC50 [2]?
The IC50 was 2.5 nM.

What about the Ki [9] of the same compound?
Its Ki is 5 nM.
